Data reported in PMC3401513 (Molecular imaging and biology : MIB : the official …, 2012).
“And” between values parts separate entries of the source, which are not always exact repeats. Equal values may be shown once. Read-outs that look alike come from different tables or passages of the source.

Molecular target: integrin αvβ3 (Homo sapiens, UniProt P05106+P06756)
Details: for tumor washout (time-activity curves): MDA-MB-435 tumor, unblocked; for decrease in BpND after blocking with an excess amount of unlabeled RGD peptide: blocked vs unblocked
[1] = 60-min dynamic PET, n = 4/group
[2] = Blocked: c(RGDyK) injected 10 min before scanning, tumor region, MDA-MB-435 tumor-bearing mice, 60-min dynamic PET, mean ± SD, n = 4/group
[3] = Blocked: c(RGDyK) injected 10 min before scanning, tumor region, MDA-MB-435 tumor-bearing mice, 60-min dynamic PET, three-compartment model fit, mean ± SD, n = 4/group
[4] = MDA-MB-435 tumor-bearing mice, n = 4/group

Sequence of integrin αvβ3 (P06756 31-889 limits assumed): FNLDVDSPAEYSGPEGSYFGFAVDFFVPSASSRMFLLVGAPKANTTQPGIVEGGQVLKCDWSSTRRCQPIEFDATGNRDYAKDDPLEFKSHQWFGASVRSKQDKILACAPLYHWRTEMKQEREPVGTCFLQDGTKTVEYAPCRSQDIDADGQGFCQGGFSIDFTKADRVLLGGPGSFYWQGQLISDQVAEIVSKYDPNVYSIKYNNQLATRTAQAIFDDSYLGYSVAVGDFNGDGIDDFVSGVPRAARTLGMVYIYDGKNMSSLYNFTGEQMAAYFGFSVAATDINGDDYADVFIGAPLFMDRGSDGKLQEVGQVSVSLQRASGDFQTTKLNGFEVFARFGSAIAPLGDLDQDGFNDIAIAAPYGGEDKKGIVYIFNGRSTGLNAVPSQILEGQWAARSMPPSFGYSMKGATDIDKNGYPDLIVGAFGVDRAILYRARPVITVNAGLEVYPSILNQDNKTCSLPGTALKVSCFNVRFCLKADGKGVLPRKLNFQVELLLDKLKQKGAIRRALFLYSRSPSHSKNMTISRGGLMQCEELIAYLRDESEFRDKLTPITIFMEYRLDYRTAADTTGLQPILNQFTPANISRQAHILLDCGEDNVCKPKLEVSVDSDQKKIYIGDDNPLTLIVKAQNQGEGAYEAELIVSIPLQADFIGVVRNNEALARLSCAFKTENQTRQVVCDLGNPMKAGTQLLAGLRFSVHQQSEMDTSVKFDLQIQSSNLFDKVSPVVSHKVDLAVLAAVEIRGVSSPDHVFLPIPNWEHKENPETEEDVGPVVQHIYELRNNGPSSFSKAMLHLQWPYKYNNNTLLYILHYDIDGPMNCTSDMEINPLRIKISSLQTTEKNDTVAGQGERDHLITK
Sequence of integrin αvβ3 (P06756 891-1048 partner limits assumed): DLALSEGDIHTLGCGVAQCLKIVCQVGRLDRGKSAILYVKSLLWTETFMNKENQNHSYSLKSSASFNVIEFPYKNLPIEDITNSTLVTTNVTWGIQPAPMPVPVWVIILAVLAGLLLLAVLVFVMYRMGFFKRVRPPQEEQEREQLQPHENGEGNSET
Sequence of integrin αvβ3 (P05106 27-788): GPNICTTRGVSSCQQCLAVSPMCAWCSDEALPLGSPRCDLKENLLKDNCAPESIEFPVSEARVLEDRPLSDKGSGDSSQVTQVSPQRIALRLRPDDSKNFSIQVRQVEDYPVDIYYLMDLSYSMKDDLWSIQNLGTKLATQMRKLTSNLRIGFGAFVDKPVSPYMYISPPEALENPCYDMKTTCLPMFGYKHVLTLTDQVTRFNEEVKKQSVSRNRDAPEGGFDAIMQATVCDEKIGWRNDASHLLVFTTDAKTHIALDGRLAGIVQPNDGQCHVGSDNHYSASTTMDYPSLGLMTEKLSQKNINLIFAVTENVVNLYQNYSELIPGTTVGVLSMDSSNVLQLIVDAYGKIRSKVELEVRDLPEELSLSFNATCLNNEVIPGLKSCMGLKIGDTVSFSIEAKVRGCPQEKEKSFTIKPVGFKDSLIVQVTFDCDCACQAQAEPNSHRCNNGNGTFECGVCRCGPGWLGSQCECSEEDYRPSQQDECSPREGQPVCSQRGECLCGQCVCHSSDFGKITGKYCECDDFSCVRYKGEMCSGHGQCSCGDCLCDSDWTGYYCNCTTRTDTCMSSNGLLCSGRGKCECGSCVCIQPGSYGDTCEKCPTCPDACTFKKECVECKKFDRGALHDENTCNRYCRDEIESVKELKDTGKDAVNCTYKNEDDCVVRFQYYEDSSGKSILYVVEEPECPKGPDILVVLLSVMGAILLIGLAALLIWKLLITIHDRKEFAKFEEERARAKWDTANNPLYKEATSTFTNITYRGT

Substance	tumor washout (time-activity curves) [1]	BpND (binding potential = k3/k4) (Unblock, tumor region, MDA-MB-435 tumor-bearing mice, 60-min dynamic PET, three-compartment model, mean ± SD, n = 4/group)	k2 (clearance from tissue) (mouse, in vivo)	BpND (binding potential = k3/k4) [2]	k3 (on-rate for specific binding) [3]	BpND (binding potential = k3/k4) (Unblock, tumor region, MDA-MB-435 tumor-bearing mice, 60-min dynamic PET, three-compartment model, mean ± SD, n = 4/group, listed as RGD Monomer)	decrease in BpND after blocking with an excess amount of unlabeled RGD peptide [4]	K1 (transfer from arterial plasma to tissue) (mouse, in vivo)	k4 (target dissociation rate) [3]	BpND (binding potential = k3/k4) (Unblock, tumor region, MDA-MB-435 tumor-bearing mice, 60-min dynamic PET, three-compartment model, mean ± SD, n = 4/group, listed as RGD Dimer)	specific bound component (Cm) in the tumor region relative to the monomer (at 1-h, separated by model fitting)
^18F-FP-c(RADyK) [^18F-FPRAD, reference compound]	most rapid tumor washout	0.89 ± 0.19 and 0.893±0.192	0.334 ± 0.092 min⁻¹								
^18F-FP-c(RGDyK) [^18F-FPRGD]				1.110±0.155	0.051 ± 0.016 min⁻¹	2.747±0.483	~ 60%	0.276 ± 0.256 mL/g/min			
^18F-FP-PEG3-E[c(RGDyK)]2 [^18F-FPPRGD2]	much slower tumor washout			1.257±0.293	0.064 ± 0.023 min⁻¹		~ 80%	0.082 ± 0.031 mL/g/min	0.050 ± 0.009 min⁻¹	5.865±0.312	almost twice as much
